Experimental data as given in US11629127B2, “Drug-induced activation of the Reelin signaling system” (UNIVERSITY OF SOUTH FLORIDA, priority 2017, dated 2023).

Target: T1, ApoER2 (Homo sapiens, UniProt Q14114)
T1 construct: expressed in transfected cells; host or cells: HEK293 (named only through the non-transfected controls)
T1 sequence (Q14114 33-963) 1: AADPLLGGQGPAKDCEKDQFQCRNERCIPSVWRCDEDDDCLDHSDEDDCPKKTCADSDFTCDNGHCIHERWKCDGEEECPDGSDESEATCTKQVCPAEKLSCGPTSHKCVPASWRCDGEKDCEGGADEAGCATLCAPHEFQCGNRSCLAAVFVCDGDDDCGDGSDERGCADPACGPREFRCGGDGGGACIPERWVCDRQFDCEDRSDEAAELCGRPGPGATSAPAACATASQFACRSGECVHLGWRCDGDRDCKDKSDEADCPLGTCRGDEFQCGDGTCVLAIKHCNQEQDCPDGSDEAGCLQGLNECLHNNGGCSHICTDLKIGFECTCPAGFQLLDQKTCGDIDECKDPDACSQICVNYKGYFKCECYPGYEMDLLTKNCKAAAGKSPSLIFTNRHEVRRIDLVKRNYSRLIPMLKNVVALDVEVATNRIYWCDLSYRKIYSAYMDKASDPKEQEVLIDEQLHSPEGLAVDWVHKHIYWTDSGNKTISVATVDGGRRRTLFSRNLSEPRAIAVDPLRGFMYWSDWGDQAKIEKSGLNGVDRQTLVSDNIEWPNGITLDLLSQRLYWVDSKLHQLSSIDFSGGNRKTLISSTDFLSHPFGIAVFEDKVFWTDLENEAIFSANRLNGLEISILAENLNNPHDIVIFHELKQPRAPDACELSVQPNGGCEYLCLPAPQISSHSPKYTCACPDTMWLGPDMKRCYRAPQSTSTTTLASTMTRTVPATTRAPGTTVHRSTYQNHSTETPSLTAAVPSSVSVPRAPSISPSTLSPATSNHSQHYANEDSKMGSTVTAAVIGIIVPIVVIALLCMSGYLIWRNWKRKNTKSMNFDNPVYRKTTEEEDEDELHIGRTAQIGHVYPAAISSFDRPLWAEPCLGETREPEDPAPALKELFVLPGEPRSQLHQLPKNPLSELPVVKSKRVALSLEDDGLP
T1 sequence (Q14114 33-963) 2: T1 sequence (Q14114 33-963) 1
Assay: ApoER2 luciferase assay (ApoER2 dimerization/clustering)
Assay type: cell-based
Settings: for changes in firefly/renilla ratios in the ApoER2 luciferase assay: 10 μM concentration, 60 minutes
Text: FIG. 3 is a schematic of the ApoER2 Clustering Assay. The ApoER2 clustering assay uses the co-transfection of ApoER2 fusion proteins that express either the C- or N-terminal of the luciferase enzyme (A″) Upon Reelin fragment binding, receptor clustering results in active Luciferase and detectable fluorescence (B″). Controls included non-transfected Hek293 cells. Results are average +/−SEM; n=9-15 assays per fragment
Reelin is able to signal through ApoER2 and VLDLR by clustering the receptors. Receptor clustering results in Dab1 activation and is responsible for the modulation of LTP in wild-type acute hippocampal slices. The ApoER2 luciferase assay was used to measure ApoER2 dimerization. This system used an ApoER2-luciferase fusion protein in which ApoER2 was coupled with either the N- or C-terminus portion of luciferase. Upon receptor clustering, the N- and C-terminus portions of luciferase combined to produce a quantifiable fluorescent signal. As a control, all cells were transfected with a Renilla florescent protein that quantified the number of cells in the testing well. The ratio of luciferase florescence to Renilla florescence was used to determine the effect of small molecules. The ApoER2 luciferase assay (FIG. 3) was used to identify small molecules that mimic the actions of Reelin to activate the Reelin signaling system.
The CNS-Set Library was purchased from ChemBridge® and consisted of 35,000 small molecule compounds. The effects of each compound on Reelin signaling were tested in the absence or presence of purified Reeling with the ApoER2 luciferase assay in a 96-well plate. The assay was used to identify agonists of ApoER2 clustering and luciferase activity and was not particularly sensitive for identifying antagonists of receptor clustering.
Relact02 was tested for inducing dimerization of ApoER2 using luciferase as a reporter. Shown in FIG. 1A is a dose response curve assessing luciferase activity. Activity was determined by dimerization of two ApoER2 receptors fused with a luciferase enzyme reporter at the N- or C-terminal region. The control was a compound with structure similar to but different from Relact02. Shown in FIG. 1B is a time course for the luciferase assay using 5 μM of Relact02 or control molecule. Shown in FIG. 1C is a time course using 5 μM Relact02 alone (black bars) or in the presence of the Reelin protein (gray bars).

Compound | activation / luciferase activity in the ApoER2 luciferase assay (compound screening, 96-well plate) | changes in firefly/renilla ratios in the ApoER2 luciferase assay
CCOC(=O)c1cc(C(=O)NCc2ccccc2)c(=O)[nH]c1C [Compound E02, ethyl 5-((benzylamino)carbonyl)-2-methyl-6-oxo-1,6-dihydro-3-pyridinecarboxylate, reference compound] | no luciferase activity | 
CC(C)c1ccc(/C=C/C(=O)Nc2ccc(Cl)cc2)cc1 [(4)] |  | did not show changes

Now from value to molecule:

activation / luciferase activity in the ApoER2 luciferase assay (compound screening, 96-well plate) | changes in firefly/renilla ratios in the ApoER2 luciferase assay | Compound
 | did not show changes | CC(C)c1ccc(/C=C/C(=O)Nc2cccc(Cl)c2Cl)cc1 [(3)]
 | did not show changes | CC(C)c1ccc(/C=C/C(=O)Nc2ccc(Cl)cc2Cl)cc1 [(2)]
 | did not show changes | CC(C)c1ccc(/C=C/C(=O)Nc2ccc(I)cc2Cl)cc1 [(5)]
